Reference: patent US20120232062A1, “AZAINDAZOLES TO TREAT FLAVIVIRIDAE VIRUS INFECTION” (EIGER BIOPHARMACEUTICALS, INC., priority 2009, published 2012)
Read-outs that look alike come from different tables or passages of the source.

System: HCV genotype 1b
Experiment: HCV 1b replicon luciferase assay
Format: cell-based
Details: Table 1, Huh7 HCV 1b replicon, luciferase reporter, 48 hours, read-out: 1b EC50
Outline: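 Huh7 cells carrying a genotype 1b replicon with stable luciferase reporter, 10k cells/well, were treated 48 h at 37 °C with 10-point 5-fold dilutions from 25 μM (0.1% DMSO), in duplicate. Replication was read as Steady-Glo luminescence.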

Row | SMILES | EC50 (Hepatitis C virus, Huh-7, 48 h) | EC50
1 | Cn1nc(-c2nnc(C3CCCN(CC4CCCCC4)C3)o2)c2ccc(N3CCCCCCC3)nc21 (centres unmarked) [compound 1272] | 940 nM | –
2 | Cn1nc(-c2nnc(C3CCCN(CC(F)F)C3)o2)c2ccc(N3CCCCCCC3)nc21 (centres unmarked) [compound 1273] | 4800 nM | –
3 | Cn1nc(C(=O)NC2CCN(CCN3CCCC3)CC2)c2ccc(N3CCCCCCC3)nc21 [compound 1296] | 500 nM | –
4 | Cn1nc(C(=O)NC2CCN(CCC3CCCCC3)CC2)c2ccc(N3CCCCCCC3)nc21 [compound 1299] | 310 nM | –
5 | Cn1nc(C(=O)NC2CCN(CC3CC3)CC2)c2ccc(N3CCCCCCC3)nc21 [compound 1300] | – | 2700 nM
6 | Cn1nc(C(=O)NC2CCN(CCC(F)(F)F)CC2)c2ccc(N3CCCCCCC3)nc21 [compound 1301] | 5100 nM | –
7 | CC(C)c1ccc(CN(c2ccc3c(C(=O)NC4CCN(CCN5CCCCC5)CC4)nn(C)c3n2)C2CCCCCC2)cc1 [compound 1303] | 660 nM | –
8 | CC(c1ccncc1)N1CCC(NC(=O)c2nn(C)c3nc(N4CCCCCCC4)ccc23)CC1 (centres unmarked) [compound 1304] | 1400 nM | –
9 | Cn1nc(C(=O)NC2CCN(CC3CCCC3)CC2)c2ccc(N3CCCCCCC3)nc21 [compound 1305] | 490 nM | –
10 | CC(C1CC1)N1CCC(NC(=O)c2nn(C)c3nc(N4CCCCCCC4)ccc23)CC1 (centres unmarked) [compound 1311] | 970 nM | –
11 | CC(c1cccc(C(F)(F)F)c1)N1CCC(NC(=O)c2nn(C)c3nc(N4CCCCCCC4)ccc23)CC1 (centres unmarked) [compound 1312] | 2700 nM | –
12 | Cn1nc(-c2cnc(C(=O)NC3CCCN(CCN4CCCCC4)C3)s2)c2ccc(N3CCCCCCC3)nc21 (centres unmarked) [compound 1316] | 550 nM | –
13 | Cn1nc(-c2cnc(C(=O)NC3CCCN(CC(F)F)C3)s2)c2ccc(N3CCCCCCC3)nc21 (centres unmarked) [compound 1322] | 1100 nM | –
14 | Cn1nc(-c2nnc(C3CCN(CC(F)F)CC3)o2)c2ccc(N3CCCCCCC3)nc21 [compound 1323] | 4400 nM | –
15 | Cn1nc(-c2nnc(C3CCCCN3CC3CCCCC3)o2)c2ccc(N3CCCCCCC3)nc21 (centres unmarked) [compound 1324] | 660 nM | –
16 | Cn1nc(-c2nnc(C3CCCCN3CCN3CCCCC3)o2)c2ccc(N3CCCCCCC3)nc21 (centres unmarked) [compound 1326] | 4800 nM | –
17 | O=C(NC1CCCNC1)c1nn(-c2ccccc2)c2nc(N3CCCCCC3)ccc12 (centres unmarked) [compound 1349] | 5000 nM | –
18 | O=C(NC1CCNCC1)c1nn(-c2ccccc2)c2nc(N3CCCCCC3)ccc12 [compound 1350] | 3800 nM | –
19 | Cn1nc(-c2nnc(C3CCNC3)o2)c2ccc(N3CCCCCCC3)nc21 (centres unmarked) [compound 1363] | 2700 nM | –

Row | SMILES | EC50 (Hepatitis C virus, Huh-7, 48 h) | EC50
20 | Cn1nc(-c2nnc([C@@H]3CCCN3CCN3CCCCC3)o2)c2ccc(N3CCCCCCC3)nc21 [compound 1364] | 2200 nM | –
21 | Cn1nc(-c2nnc(C3CCN(CC4CCCCC4)C3)o2)c2ccc(N3CCCCCCC3)nc21 (centres unmarked) [compound 1365] | 2600 nM | –
22 | Cn1nc(-c2nnc(C3CCN(CC(F)F)C3)o2)c2ccc(N3CCCCCCC3)nc21 (centres unmarked) [compound 1366] | 4000 nM | –
23 | Cn1nc(-c2nnc(C3CCN(CCN4CCCCC4)C3)o2)c2ccc(N3CCCCCCC3)nc21 (centres unmarked) [compound 1368] | 4800 nM | –
24 | Cn1nc(-c2nnc(C3CCN(CCN4CCCCC4)CC3)o2)c2ccc(N3CCCCCCC3)nc21 [compound 1373] | 630 nM | –
25 | CCCCCCNc1ccc2c(C(=O)NC3CCCNC3)nn(-c3cccc(Cl)c3C)c2n1 (centres unmarked) [compound 1378] | 2600 nM | –
26 | C[C@@H]1CCCN1CCN1CCC(NC(=O)c2nn(C)c3nc(N4CCCCCC4)ccc23)CC1 [compound 1424] | 790 nM | –
27 | COCC1CCCCN1CCN1CCC(NC(=O)c2nn(C)c3nc(N4CCCCCC4)ccc23)CC1 (centres unmarked) [compound 1426] | 450 nM | –
28 | COCC1CCCN1CCCc1nn(C)c2nc(N3CCCCCCC3)ccc12 (centres unmarked) [compound 1453] | 2800 nM | –
29 | CC1CCCCN1CCCc1nn(C)c2nc(N3CCCCCCC3)ccc12 (centres unmarked) [compound 1454] | 1600 nM | –
30 | Cn1nc(CCCN2CC[C@H](O)C2)c2ccc(N3CCCCCCC3)nc21 [compound 1458] | 3200 nM | –
31 | Cn1nc(CCCN2CCCC(CO)C2)c2ccc(N3CCCCCCC3)nc21 (centres unmarked) [compound 1460] | 2700 nM | –
32 | Cn1nc(CCCN2CC=CC2)c2ccc(N3CCCCCCC3)nc21 [compound 1461] | 2600 nM | –
33 | CC1CCC(C)N1CCCc1nn(C)c2nc(N3CCCCCCC3)ccc12 (centres unmarked) [compound 1462] | 1200 nM | –
34 | Cn1nc(CCCN2CCC[C@@H]2CO)c2ccc(N3CCCCCCC3)nc21 [compound 1464] | 2000 nM | –
35 | COC[C@@H]1CCCN1CCCc1nn(C)c2nc(N3CCCCCCC3)ccc12 [compound 1465] | 4700 nM | –
36 | Cn1nc(C(=O)NC2CCN(CCN3CCCCC3)CC2)c2ccc(NC3CCCCCCC3)nc21 [compound 1468] | 330 nM | –
37 | Cn1nc(C(=O)NC2CCN(CC(F)F)CC2)c2ccc(NC3CCCCCCC3)nc21 [compound 1472] | 1400 nM | –
38 | CC(C)CN1CCC(NC(=O)c2nn(C)c3nc(NC4CCCCCCC4)ccc23)CC1 [compound 1473] | 890 nM | –

Row | SMILES | EC50 (Hepatitis C virus, Huh-7, 48 h) | EC50
39 | CCN1CCC(NC(=O)c2nn(C)c3nc(NC4CCCCCCC4)ccc23)CC1 [compound 1474] | 480 nM | –
40 | Cn1nc(C(=O)NC2CCN(CC3CCOCC3)CC2)c2ccc(NC3CCCCCCC3)nc21 [compound 1476] | 570 nM | –
41 | Cn1nc(C(=O)NC2CCN(CC3CCCCC3)CC2)c2ccc(NC3CCCCCCC3)nc21 [compound 1477] | – | 530 nM
42 | Cn1nc(C(=O)NC2CCN(CC3CC3)CC2)c2ccc(NC3CCCCCCC3)nc21 [compound 1478] | 560 nM | –
43 | Cn1nc(C(=O)NC2CCN(CC#N)CC2)c2ccc(NC3CCCCCCC3)nc21 [compound 1479] | 920 nM | –
44 | CCCn1nc(C(=O)NC2CCN(CCN3CCCCC3)CC2)c2ccc(N3CCCCCC3)nc21 [compound 1486] | 760 nM | –
45 | CC(C)Cn1nc(C(=O)NC2CCN(CCN3CCCCC3)CC2)c2ccc(N3CCCCCC3)nc21 [compound 1487] | 830 nM | –
46 | O=C(NC1CCN(CCN2CCCCC2)CC1)c1nn(CC2CC2)c2nc(N3CCCCCC3)ccc12 [compound 1489] | 550 nM | –
47 | Cn1nc(CCCN2C[C@@H](O)[C@@H](O)C2)c2ccc(N3CCCCCCC3)nc21 [compound 1495] | 4700 nM | –
48 | C[C@@H]1CCCN1CCCc1nn(C)c2nc(N3CCCCCCC3)ccc12 [compound 1499] | 4000 nM | –
49 | COC[C@@H]1CCCN1CCN1CCC(NC(=O)c2nn(C)c3nc(N4CCCCCC4)ccc23)CC1 [compound 1556] | 2900 nM | –
50 | COCC1CCN(CCN2CCC(NC(=O)c3nn(C)c4nc(N5CCCCCC5)ccc34)CC2)C1 (centres unmarked) [compound 1557] | 2100 nM | –
51 | Cn1nc(C(=O)NC2CCN(CCN3CC[C@@H](O)C3)CC2)c2ccc(N3CCCCCC3)nc21 [compound 1558] | 3400 nM | –
52 | Cn1nc(C(=O)NC2CCN(CCN3CCC[C@H]3CO)CC2)c2ccc(N3CCCCCC3)nc21 [compound 1561] | 3800 nM | –
53 | Cn1nc(C(=O)NC2CCN(CCN3CCCC3)CC2)c2ccc(NC3CCCCC3)nc21 [compound 1581] | 3300 nM | –
54 | Cn1nc(C(=O)NC2CCN(C3CCCCC3)CC2)c2ccc(N3CCCCCC3)nc21 [compound 1594] | 1800 nM | –
55 | CCCN1CCC(NC(=O)c2nn(C)c3nc(N4CCCCCC4)ccc23)CC1 [compound 1596] | 1400 nM | –
56 | Cn1nc(C(=O)NC2CCN(CCO)CC2)c2ccc(N3CCCCCC3)nc21 [compound 1598] | 2700 nM | –
